Where two headings read alike, the source gives them in different places.
Legend:
[1] = target: T1, (human) A2A adenosine receptor (Homo sapiens, UniProt P29274); assay: Radioligand binding test ([3H]CGS21680 displacement, hA2A HEK-293 cell membranes); conditions: for IC50: [3H]-CGS 21680 25 nM, hA2A HEK-293 cell membrane, 25° C., 90 minutes, read-out: IC50 (nM), compounds binding to A2A adenosine receptor; for Ki: read-out: Ki (nM), inhibition constant for binding to A2A adenosine receptor
T1 construct: purchased PerkinElmer Research Products (Boston, Mass.); host or cells: HEK-293 cells, stably transfected; membrane preparation
T1 sequence (P29274 whole entry): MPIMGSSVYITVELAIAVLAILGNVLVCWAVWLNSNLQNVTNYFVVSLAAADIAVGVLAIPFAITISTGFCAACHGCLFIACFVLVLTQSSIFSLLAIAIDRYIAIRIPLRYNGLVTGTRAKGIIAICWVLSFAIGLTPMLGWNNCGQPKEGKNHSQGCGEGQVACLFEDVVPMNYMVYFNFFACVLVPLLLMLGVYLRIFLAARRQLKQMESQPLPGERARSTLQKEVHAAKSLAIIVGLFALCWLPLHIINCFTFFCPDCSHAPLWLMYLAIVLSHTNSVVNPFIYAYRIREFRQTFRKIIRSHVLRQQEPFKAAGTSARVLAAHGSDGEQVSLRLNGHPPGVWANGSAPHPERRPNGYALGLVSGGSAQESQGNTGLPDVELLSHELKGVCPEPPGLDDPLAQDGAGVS
Description: Cell membranes stably transfected with (human) A2A adenosine receptor were prepared in HEK-293 cells. The cell membranes were obtained from PerkinElmer Research Products (Boston, Mass.).
CGS 21680 (2-[p-(2-carboxyethyl)phenylethylamino]-5′-ethylcarboxamidoadenosine) was purchased from Selleck (Shanghai, CN).
The A2A adenosine receptors used were all expressed in the cell membranes. The compound was diluted 3 times serially with DMSO (Solarbio, D8371-250 ml) to generate compound source plates with 10 different concentrations (10 μM, 3.3 μM, 1.1 μM, 0.37 μM, 0.12 μM, 0.0412 μM, 0.0137 μM, 0.0046 μM, 0.0015 μM, 0.0005 μM), 250 nL of compound was added to 384-well Opti-plate, sealed with parafilm. […] (final 25 nM) was added to the diluted cell membrane and mixed well. 50 μL of the prepared dilution solution of cell membrane was transferred to the 384-well Opti-plate containing compound and incubated at 25° C. for 90 minutes. 100 μL of 0.5% Polyethyleneimine solution (PEI) was added to […]-96 GF/B filter plate, and soaked for 90 minutes at 4° C., then 500 μL of washing buffer/well (50 mM Tris-HCl, pH 7.4, 154 mM NaCl) was transferred with Cell Harvester to wash the […]-96 GF/B filter plate twice. The mixed system in the Opti-plate was transferred to the washed […]-96 GF/B filter plate, 500 μL of washing buffer/well (50 mM Tris-HCl, pH 7.4, 154 mM NaCl) was used to wash the […]-96 GF/B filter plate 9 times. Incubation was performed at 37° C. for 3 minutes. 40 μL of ULTIMA GOLD scintillation solution (Perkin Elmer, Cat #77-16061) was added to each well, CPM (count per minute) value was read by a MicroBeta liquid scintillation counter (PerkinElmer).

[2] = target: human adenosine receptor A2A (Homo sapiens, UniProt P29274); assay: A2A adenosine receptor cAMP test (LANCE Ultra cAMP, hADORA2A-HEK293 cells); type: cell-based
Sequence of human adenosine receptor A2A (P29274 whole entry): as above
From the text: A2A Adenosine Receptor cAMP Test
Experimental reagents and consumables: DMEM/F12, G418, Penicillin-Streptomycin, Versene Solution, HEPES, Hank's Buffered Saline Solution, PBS (pH 7.4, 1×, sterile), FBS, BSA Stabilizer 7.5%, Rolipram, NECA were separately purchased from Gibico, Hyclone and Sigma. LANCE® Ultra cAMP kit (Eu-cAMP tracer, Ulight-anti-cAMP reagent, cAMP detection buffer) and hADORA2A-HEK293 cells were purchased from PerkinElmer Research Products (Boston, Mass.). All other reagents were of analytical grade and obtained from commercial sources. 384-well polypropylene microplate and 384-well solid white plate were purchased from Labcyte and Corning, respectively.
Experimental instruments: TECAN automated liquid handling workstation, Echo Acoustic Liquid Handler and EnVison multimode plate reader were purchased from TECAN, Labcyte and […], respectively.
The cells stably expressing human adenosine receptor A2A (hADORA2A-HEK293 cells) were cultured in DMEM/F12 medium containing 10% FBS, 1× Penicillin-Streptomycin and 400 μg/ml G418 in a 37° C. and 5% CO2 environment. Before the experiment, the cells were digested with Versene solution, and the cells were collected by centrifugation at 200 g and room temperature for 5 minutes, and finally resuspended with assay buffer (Hank's buffered saline solution, containing 5 mM HEPES, 0.1% BSA stabilizer and 10 μM Rolipram, pH 7.4). The TECAN automated liquid handling workstation was used to dilute the compound in a 384-well polypropylene microplate with DMSO to 11 concentration points in a 3-fold gradient to prepare the compound source plate, in which the 11 concentration points of the compound were 10 mM, 3.33 mM, 1.11 mM., 0.37 mM, 0.12 mM, 0.041 mM, 0.013 mM, 4.57×10^−3 mM, 1.52×10^−3 mM, 5×10−4 mM and 1.7×10^−4 mM. The Echo Acoustic Liquid Handler (Labcyte) was used to transfer the test compound from the compound source plate to an assay plate, in which the transfer volume of the compound was 10 nl/well. The hADORA2A-HEK293 cell suspension was diluted with assay buffer to 30,000 cells/ml, and the cell suspension was transferred to the assay plate at a volume of 10 μl/well (300 cells/well). The assay plate was centrifuged at 150 g for 1 minute and pre-incubated at room temperature for 30 minutes. The Eu-cAMP tracer working solution (Eu-cAMP tracer 40 μl, cAMP detection buffer 1.96 ml) (5 μl/well) was added to the assay plate, and then the Ulight-anti-cAMP working solution (13 μl of Ulight-anti-cAMP reagent and 1.95 ml of cAMP detection buffer) (5 μl/well) was added to the assay plate. The assay plate was rotated at 150 g for 30 seconds and incubated at room temperature for 30 minutes. The EnVison multimode plate reader (PerkinElmer) was used determine the level of cyclic adenosine monophosphate in the final solution (λex=320 nm, λem=665 nm & 615 nm). The EC50 (nM) value of the compound interacting with the A2A adenosine receptor to stimulate the production of cyclic adenosine monophosphate was calculated and the titer of the compound function was expressed as the EC50 (nM) value.
When the test compounds interacted with A2AAR, the EC50 (nM) values for stimulating the production of cyclic AMP were shown in Table 2.

[3] = stimulating the production of cyclic AMP, read-out: cAMP EC50
[4] = stimulating the production of cyclic adenosine monophosphate, read-out: cAMP EC50 values

IC50 [1] [nM] | Ki [1] [nM] | agonistic activity at hA2AAR (cAMP production) [2] | EC50 [2, 3] [µM] | EC50 [2, 4] [µM] | melting point [°C] | SMILES
6.4 | 3 | no agonistic activity | > 10 | > 10 | 132 | CC(=O)Nc1ccc(-c2nnc3c4ncn([C@@H]5O[C@H](CO)[C@@H](O)[C@H]5O)c4ncn23)cc1 [Compound 1, N-{4-{7-[(2R,3R,4S,5R)-3,4-dihydroxy-5-(hydroxymethyl)tetrahydrofuran-2-yl]-7H-[1,2,4]triazolo[3,4-i]purin-3-yl}phenyl}acetamide]
3.9 | 1.8 | no agonistic activity | > 10 | > 10 | 84 | OC[C@H]1O[C@@H](n2cnc3c2ncn2c(C4CCCC4)nnc32)[C@H](O)[C@@H]1O [Compound 2, (2R,3R,4S,5R)-2-{3-cyclopentyl-7H-[1,2,4]triazolo[3,4-i]purin-7-yl}-5-(hydroxymethyl)tetrahydrofuran-3,4-diol]
> 10000 | > 10000 |  |  |  | 116 | OC[C@H]1O[C@@H](n2cnc3c2ncn2c(-c4ccc(OCc5ccccc5)c(OCc5ccccc5)c4)nnc32)[C@H](O)[C@@H]1O [Compound 3, (2R,3R,4S,5R)-2-{3-[3,4-di(benzyloxy)phenyl]-7H-[1,2,4]triazolo[3,4-i]purin-7-yl}-5-(hydroxymethyl)tetrahydrofuran-3,4-diol]
3.9 | 1.8 | no agonistic activity | > 10 | > 10 | 112 | OC[C@H]1O[C@@H](n2cnc3c2ncn2c(-c4ccc(OCc5ccc(F)cc5)cc4)nnc32)[C@H](O)[C@@H]1O [Compound 4, (2R,3R,4S,5R)-2-{3-{4-[(4-fluorobenzyl)oxy]phenyl}-7H-[1,2,4]triazolo[3,4-i]purin-7-yl}-5-(hydroxymethyl)tetrahydrofuran-3,4-diol]
6.2 | 2.9 | no agonistic activity | > 10 | > 10 | 76 | OC[C@H]1O[C@@H](n2cnc3c2ncn2c(-c4cccc(OCc5ccccc5)c4)nnc32)[C@H](O)[C@@H]1O [Compound 5, (2R,3R,4S,5R)-2-{3-[3-(benzyloxy)phenyl]-7H-[1,2,4]triazolo[3,4-i]purin-7-yl}-5-(hydroxymethyl)tetrahydrofuran-3,4-diol]
> 10000 | > 10000 |  |  |  |  | OC[C@H]1O[C@@H](n2cnc3c2ncn2c(-c4ccc(C(F)(F)F)cc4C(F)(F)F)nnc32)[C@H](O)[C@@H]1O [Compound 6, (2R,3R,4S,5R)-2-{3-[2,4-di(trifluoromethyl)phenyl]-7H-[1,2,4]triazolo[3,4-i]purin-7-yl}-5-(hydroxymethyl)tetrahydrofuran-3,4-diol]
> 10000 | > 10000 |  |  |  | 172 | OC[C@H]1O[C@@H](n2cnc3c2ncn2c(-c4ccc(-c5ccccn5)cc4)nnc32)[C@@H](O)[C@H]1O [Compound 7, (2R,3S,4R,5R)-2-{3-[4-(pyridin-2-yl)phenyl]-7H-[1,2,4]triazolo[3,4-i]purin-7-yl}-5-(hydroxymethyl)tetrahydrofuran-3,4-diol]
7510 | 3510 |  |  |  | 280 | OC[C@H]1O[C@@H](n2cnc3c2ncn2c(-c4ccc(-c5ccccc5)cc4)nnc32)[C@H](O)[C@@H]1O [Compound 8, (2R,3R,4S,5R)-2-{3-{[1,1′-biphenyl]-4-yl}-7H-[1,2,4]triazolo[3,4-i]purin-7-yl}-5-(hydroxymethyl)tetrahydrofuran-3,4-diol]
4.3 | 2 | no agonistic activity | > 10 | > 10 | 118 | CCCOc1ccc(-c2nnc3c4ncn([C@@H]5O[C@H](CO)[C@H](O)[C@@H]5O)c4ncn23)cc1 [Compound 9, (2R,3S,4R,5R)-2-{3-(4-propoxyphenyl)-7H-[1,2,4]triazolo[3,4-i]purin-7-yl}-5-(hydroxymethyl)tetrahydrofuran-3,4-diol]
> 10000 | > 10000 |  |  |  | 124 | OC[C@H]1O[C@@H](n2cnc3c2ncn2c(-c4ccc(C(F)(F)F)cc4)nnc32)[C@@H](O)[C@H]1O [Compound 10, (2R,3S,4R,5R)-2-{3-[4-(trifluoromethyl)phenyl]-7H-[1,2,4]triazolo[3,4-i]purin-7-yl}-5-(hydroxymethyl)tetrahydrofuran-3,4-diol]
> 10000 | > 10000 |  |  |  | 222 | OC[C@H]1O[C@@H](n2cnc3c2ncn2c(-c4ccc(Br)cn4)nnc32)[C@H](O)[C@@H]1O [Compound 11, (2R,3R,4S,5R)-2-{3-(5-bromopyridin-2-yl)-7H-[1,2,4]triazolo[3,4-i]purin-7-yl}-5-(hydroxymethyl)tetrahydrofuran-3,4-diol]
3.9 | 1.8 | no agonistic activity | > 10 | > 10 | 216 | OC[C@H]1O[C@@H](n2cnc3c2ncn2c(-c4cncs4)nnc32)[C@@H](O)[C@H]1O [Compound 12, (2R,3S,4R,5R)-2-{3-(thiazol-5-yl)-7H-[1,2,4]triazolo[3,4-i]purin-7-yl}-5-(hydroxymethyl)tetrahydrofuran-3,4-diol]
> 10000 | > 10000 |  |  |  | 130 | OC[C@H]1O[C@@H](n2cnc3c2ncn2c(C4CCCCC4)nnc32)[C@H](O)[C@@H]1O [Compound 13, (2R,3R,4S,5R)-2-{3-cyclohexyl-7H-[1,2,4]triazolo[3,4-i]purin-7-yl}-5-(hydroxymethyl)tetrahydrofuran-3,4-diol]

— patent US20220363710A1, “SMALL-MOLECULE COMPOUND HAVING A2A ADENOSINE RECEPTOR ANTAGONISM” (ACADEMY OF MILITARY MEDICAL SCIENCES, priority 2019, published 2022)
